This note sets out measurements from patent US10014546B2 (priority 2012, dated 2018).

Like-named read-outs stand apart in the source and are kept apart here.

Data set [1] is classed as physicochemical.
A short description of data set [2]: physchem.

One may read the solubility as the concentration that dissolves in the medium under given conditions. Lower therefore signals little dissolved substance.

As to `O.O.O.O.O.O.[Fe+3]` [Fe^III/II(H2O)6, reference compound], the “E1/2, V vs. RHE” value in data set [1] (pH 0) is recorded as “+0.77 V vs. RHE”.

Regarding `Oc1cccc2c1[O][Ti-2]13([O]2)([O]c2cccc(O)c2[O]1)[O]c1cccc(O)c1[O]3.[K+].[Na+]` [Ti(pyrogallate)^2−/3−, Sodium potassium titanium(IV) trispyrogallate], the “E1/2, V vs. RHE” value in data set [1] (pH 9.8) is −0.55 V vs. RHE.

For `CC(O)C(=O)[O-].CC(O)C(=O)[O-].O=C([O-])c1ccccc1O.[Ti+3]` [Ti^IV/III(lactate)2(salicylate), titanium bis-lactate mono-salicylate], in data set [2], the solubility is not below 1500 mM.

As to “Sodium titanium(IV) triscitrate [Ti(citrate)3^2−/3−]”, in data set [1] (pH 5), the “E1/2, V vs. RHE” value is on record as −0.04 V vs. RHE.

As to “iron tris-(α-hydroxyacetate) [Fe^III/II(α-hydroxyacetate)3]”, the “E1/2, V vs. RHE” value in data set [1] (pH 8.1) is given as −0.50 V vs. RHE.

With iron tris-malate [Fe^III/II(malate)3], the “E1/2, V vs. RHE” value in data set [1] (pH 9.2) is reported as −0.30 V vs. RHE.

Turning to “titanium bis-lactate [Ti^IV/III(lactate)2]”, the “E1/2, V vs. RHE” value in data set [1] (pH 2) was −0.03 V vs. RHE; in data set [1] (pH 3.6), −0.40 V vs. RHE; in data set [1] (pH 9) it was −0.40 V vs. RHE.

In the case of “titanium mono-lactate [Ti^IV/III(lactate)1]”, the results for the “E1/2, V vs. RHE” value in data set [1] (pH 3.6), in data set [1] (pH 5.6) and in data set [1] (pH 9) were −0.34 V vs. RHE, −0.40 V vs. RHE and −0.54 V vs. RHE, respectively.
